Measured values taken from PubChem BioAssay AID1963435 (Molecular Pharmacology Branch, DTP, NCI, 2024).

Tested on: PANC-1 complex spheroid growth, percent test/control
Test: Anticancer human tumor PANC-1 cell line growth inhibition [Asc];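 also: spheroids exposed to agents for 7 days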;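 as to viability, T/C: percent viability relative to DMSO vehicle wells taken as 100%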
Conditions: for IC50: curve of first compound; for viability, T/C: stronger effect = lower value
Procedure, shortened: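 Concentration series start at each agent's clinical Cmax, or at 10 microM when none is established, and drop in half-log steps; agents are applied alone or together to complex spheroids built with HUVEC and hMSC.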

[1] = second compound 0.0316 µM, first compound 0.0316 µM
[2] = second compound 0.0316 µM, first compound 0.1 µM
[3] = second compound 0.0316 µM, first compound 0.316 µM
[4] = second compound 0.0316 µM, first compound 1 µM
[5] = second compound 0.0316 µM, first compound 3.16 µM
[6] = second compound 0.0316 µM, first compound 10 µM
[7] = second compound 0.1 µM, first compound 0.0316 µM
[8] = second compound 0.1 µM, first compound 0.1 µM
[9] = second compound 0.1 µM, first compound 0.316 µM
[10] = second compound 0.1 µM, first compound 1 µM
[11] = second compound 0.1 µM, first compound 3.16 µM
[12] = second compound 0.1 µM, first compound 10 µM
[13] = second compound 0.316 µM, first compound 0.0316 µM
[14] = second compound 0.316 µM, first compound 0.1 µM
[15] = second compound 0.316 µM, first compound 0.316 µM
[16] = second compound 0.316 µM, first compound 1 µM
[17] = second compound 0.316 µM, first compound 3.16 µM
[18] = second compound 0.316 µM, first compound 10 µM
[19] = second compound 1 µM, first compound 0.0316 µM
[20] = second compound 1 µM, first compound 0.1 µM
[21] = second compound 1 µM, first compound 0.316 µM
[22] = second compound 1 µM, first compound 1 µM
[23] = second compound 1 µM, first compound 3.16 µM
[24] = second compound 1 µM, first compound 10 µM
[25] = second compound 3.16 µM, first compound 0.0316 µM
[26] = second compound 3.16 µM, first compound 0.1 µM
[27] = second compound 3.16 µM, first compound 0.316 µM
[28] = second compound 3.16 µM, first compound 1 µM
[29] = second compound 3.16 µM, first compound 3.16 µM
[30] = second compound 3.16 µM, first compound 10 µM
[31] = second compound 10 µM, first compound 0.0316 µM
[32] = second compound 10 µM, first compound 0.1 µM
[33] = second compound 10 µM, first compound 0.316 µM
[34] = second compound 10 µM, first compound 1 µM
[35] = second compound 10 µM, first compound 3.16 µM
[36] = second compound 10 µM, first compound 10 µM

SMILES: C=C(F)C(=O)N1CCN(c2nc(OCC3CCCN3C)nc3c2CCN(c2cccc4cccc(Cl)c24)C3)CC1CC#N (stereo unspecified) + Cc1c(S(C)(=O)=O)c(-c2cc(F)cc(N3CCN(c4ccc(NS(=O)(=O)c5ccc(NC(CCN6CCC(C(=O)OCCCP(=O)(O)O)CC6)CSc6ccccc6)c(S(=O)(=O)C(F)(F)F)c5)cc4)CC3)c2)c(-c2ccc(Cl)cc2)n1C(C)C
- IC50 (second compound 0.0316 µM): 5.83 µM
- IC50 (second compound 0.1 µM): 5.83 µM
- IC50 (second compound 0.316 µM): 5.43 µM
- IC50 (second compound 1 µM): 5.24 µM
- IC50 (second compound 3.16 µM): 5 µM
- IC50 (second compound 10 µM): 5.88 µM
- viability, T/C [1]: 94.6%
- viability, T/C [2]: 95.8%
- viability, T/C [3]: 106%
- viability, T/C [4]: 100%
- viability, T/C [5]: 92.4%
- viability, T/C [6]: 12.5%
- viability, T/C [7]: 97.4%
- viability, T/C [8]: 87.6%
- viability, T/C [9]: 113%
- viability, T/C [10]: 103%
- viability, T/C [11]: 98%
- viability, T/C [12]: 7.53%
- viability, T/C [13]: 101%
- viability, T/C [14]: 101%
- viability, T/C [15]: 109%
- viability, T/C [16]: 103%
- viability, T/C [17]: 91.3%
- viability, T/C [18]: 3.26%
- viability, T/C [19]: 97.8%
- viability, T/C [20]: 98.2%
- viability, T/C [21]: 117%
- viability, T/C [22]: 107%
- viability, T/C [23]: 88.1%
- viability, T/C [24]: 1.2%
- viability, T/C [25]: 104%
- viability, T/C [26]: 113%
- viability, T/C [27]: 114%
- viability, T/C [28]: 114%
- viability, T/C [29]: 80%
- viability, T/C [30]: 4.62%
- viability, T/C [31]: 181%
- viability, T/C [32]: 180%
- viability, T/C [33]: 189%
- viability, T/C [34]: 194%
- viability, T/C [35]: 108%
- viability, T/C [36]: 0.69%

SMILES: C=CC(=O)N1CCN(c2nc(=O)n(-c3c(C)ccnc3C(C)C)c3nc(-c4c(O)cccc4F)c(F)cc23)C(C)C1 (stereo unspecified) + Cc1c(S(C)(=O)=O)c(-c2cc(F)cc(N3CCN(c4ccc(NS(=O)(=O)c5ccc(NC(CCN6CCC(C(=O)OCCCP(=O)(O)O)CC6)CSc6ccccc6)c(S(=O)(=O)C(F)(F)F)c5)cc4)CC3)c2)c(-c2ccc(Cl)cc2)n1C(C)C
- IC50 (second compound 0.0316 µM): > 10 µM
- IC50 (second compound 0.1 µM): > 10 µM
- IC50 (second compound 0.316 µM): > 10 µM
- IC50 (second compound 1 µM): > 10 µM
- IC50 (second compound 3.16 µM): > 10 µM
- IC50 (second compound 10 µM): > 10 µM
- viability, T/C [1]: 98.5%
- viability, T/C [2]: 95.1%
- viability, T/C [3]: 93.7%
- viability, T/C [4]: 89.7%
- viability, T/C [5]: 98.5%
- viability, T/C [6]: 88.2%
- viability, T/C [7]: 99.3%
- viability, T/C [8]: 90.3%
- viability, T/C [9]: 105%
- viability, T/C [10]: 106%
- viability, T/C [11]: 88.8%
- viability, T/C [12]: 94.5%
- viability, T/C [13]: 107%
- viability, T/C [14]: 97%
- viability, T/C [15]: 105%
- viability, T/C [16]: 105%
- viability, T/C [17]: 98.4%
- viability, T/C [18]: 98%
- viability, T/C [19]: 96.2%
- viability, T/C [20]: 104%
- viability, T/C [21]: 107%
- viability, T/C [22]: 114%
- viability, T/C [23]: 95.6%
- viability, T/C [24]: 92.6%
- viability, T/C [25]: 107%
- viability, T/C [26]: 109%
- viability, T/C [27]: 104%
- viability, T/C [28]: 102%
- viability, T/C [29]: 109%
- viability, T/C [30]: 92.4%
- viability, T/C [31]: 166%
- viability, T/C [32]: 166%
- viability, T/C [33]: 162%
- viability, T/C [34]: 177%
- viability, T/C [35]: 175%
- viability, T/C [36]: 135%

SMILES: CCN1C(C(=O)NC23CCC(C(=O)O)(CC2)CC3)C(c2cccc(Cl)c2F)C2(C(=O)Nc3cc(Cl)ccc32)C12CCCCC2 (stereo unspecified) + Cc1c(S(C)(=O)=O)c(-c2cc(F)cc(N3CCN(c4ccc(NS(=O)(=O)c5ccc(NC(CCN6CCC(C(=O)OCCCP(=O)(O)O)CC6)CSc6ccccc6)c(S(=O)(=O)C(F)(F)F)c5)cc4)CC3)c2)c(-c2ccc(Cl)cc2)n1C(C)C
- IC50 (second compound 0.0316 µM): > 3 µM
- IC50 (second compound 0.1 µM): > 3 µM
- IC50 (second compound 0.316 µM): > 3 µM
- IC50 (second compound 1 µM): > 3 µM
- IC50 (second compound 3.16 µM): > 3 µM
- IC50 (second compound 10 µM): > 3 µM
- viability, T/C (second compound 0.0316 µM, first compound 0.00949 µM): 99.1%
- viability, T/C (second compound 0.0316 µM, first compound 0.03 µM): 103%
- viability, T/C (second compound 0.0316 µM, first compound 0.0949 µM): 93.7%
- viability, T/C (second compound 0.0316 µM, first compound 0.3 µM): 110%
- viability, T/C (second compound 0.0316 µM, first compound 0.949 µM): 109%
- viability, T/C (second compound 0.0316 µM, first compound 3 µM): 114%
- viability, T/C (second compound 0.1 µM, first compound 0.00949 µM): 101%
- viability, T/C (second compound 0.1 µM, first compound 0.03 µM): 108%
- viability, T/C (second compound 0.1 µM, first compound 0.0949 µM): 106%
- viability, T/C (second compound 0.1 µM, first compound 0.3 µM): 96.8%
- viability, T/C (second compound 0.1 µM, first compound 0.949 µM): 124%
- viability, T/C (second compound 0.1 µM, first compound 3 µM): 123%
- viability, T/C (second compound 0.316 µM, first compound 0.00949 µM): 99.8%
- viability, T/C (second compound 0.316 µM, first compound 0.03 µM): 96.3%
- viability, T/C (second compound 0.316 µM, first compound 0.0949 µM): 105%
- viability, T/C (second compound 0.316 µM, first compound 0.3 µM): 103%
- viability, T/C (second compound 0.316 µM, first compound 0.949 µM): 117%
- viability, T/C (second compound 0.316 µM, first compound 3 µM): 109%
- viability, T/C (second compound 1 µM, first compound 0.00949 µM): 124%
- viability, T/C (second compound 1 µM, first compound 0.03 µM): 107%
- viability, T/C (second compound 1 µM, first compound 0.0949 µM): 106%
- viability, T/C (second compound 1 µM, first compound 0.3 µM): 107%
- viability, T/C (second compound 1 µM, first compound 0.949 µM): 118%
- viability, T/C (second compound 1 µM, first compound 3 µM): 115%
- viability, T/C (second compound 3.16 µM, first compound 0.00949 µM): 115%
- viability, T/C (second compound 3.16 µM, first compound 0.03 µM): 102%
- viability, T/C (second compound 3.16 µM, first compound 0.0949 µM): 111%
- viability, T/C (second compound 3.16 µM, first compound 0.3 µM): 116%
- viability, T/C (second compound 3.16 µM, first compound 0.949 µM): 118%
- viability, T/C (second compound 3.16 µM, first compound 3 µM): 123%
- viability, T/C (second compound 10 µM, first compound 0.00949 µM): 179%
- viability, T/C (second compound 10 µM, first compound 0.03 µM): 189%
- viability, T/C (second compound 10 µM, first compound 0.0949 µM): 184%
- viability, T/C (second compound 10 µM, first compound 0.3 µM): 186%
- viability, T/C (second compound 10 µM, first compound 0.949 µM): 172%
- viability, T/C (second compound 10 µM, first compound 3 µM): 155%
